Assay results taken from patent US20140018537A1, “GPR119 AGONIST” (NIPPON CHEMIPHAR CO., LTD., priority 2008, published 2014).
pEC50: −log10 of the molar value.

What was measured:
human GPR119 = target: T1, human GPR119 (Homo sapiens, UniProt Q8TDV5); test: Intracellular cAMP increase in human GPR119 introduced cells (HitHunter cAMP XS+ Assay); assay type: cell-based; details: for pEC50: hGPR119 stable cells, intracellular cAMP; for GPR119 agonist effect (in words): hGPR119 introduced cells, cAMP
T1 construct: expressed in transfected cells
T1 sequence (Q8TDV5 1-335): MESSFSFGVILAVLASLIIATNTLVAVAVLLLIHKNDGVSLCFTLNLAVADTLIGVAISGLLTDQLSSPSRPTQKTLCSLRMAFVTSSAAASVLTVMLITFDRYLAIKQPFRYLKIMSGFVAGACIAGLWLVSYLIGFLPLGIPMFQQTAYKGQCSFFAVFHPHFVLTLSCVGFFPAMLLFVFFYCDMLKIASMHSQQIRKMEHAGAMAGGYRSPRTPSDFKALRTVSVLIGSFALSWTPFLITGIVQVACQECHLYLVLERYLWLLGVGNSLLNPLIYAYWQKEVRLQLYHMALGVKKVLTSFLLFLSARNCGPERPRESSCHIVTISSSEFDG
Excerpt: The GPR119 agonist effect was studied by measuring the effect of an analyte on increase of intracellular amount of cAMP in human GPR119 introduced cells. The testing method is described below.
(1) Construction of the Stable Cell Line Expressing Human G Protein-Coupled-Receptor 119 (hGPR119) Human GPR119 gene (NM 178471) is purchased from American Type Culture Collection (ATCC No. 10807349). Hind III site-added forward side primer ([…]: sequence No. 1) and Apa I site-added reverse side primer ([…]: sequence No. 2) are designed. The target gene is amplyfied by a polymerase chain reaction (PCR) method using KOD-Plus-Ver. 2 (TOYOBO #KOD-211). PCR is conducted by repeating three steps consisting of the step of 98° C.-10 seconds, the step of 55° C.-30 seconds, and the step of 68° C.-1 minute and 10 seconds in 35 cycles. The amplified PCR product is inserted into pcDNA5/FRT/TO (Invitrogen #V6520-20) plasmid. Cells, which can constantly express the target gene with tetracycline, are constructed using Flp-In T-REx-systen (invitorogen).
(2) Measurement of Intracellular Cyclic Adenosine Monophosphate (cAMP)
The hGPR119 introduced cells prepared in (1) are plated on a 96-well plate using Dulbecco's Modified Eagle Medium containing heat-inactived 10% fetal bovine serum. After incubation of 24 hours, tetracyclin (invitrogen #Q10019) is added to the culture medium to induce hGPR119 gene expression. After further incubation of 24 hours, the cells are stimulated with 0.5 mM 3-ISOBUTYL-1-METHYLXANTHINE (Sigma #17018) phosphate buffer containing the analyte at 37° C. for 30 minutes. The amount of the intracellular cAMP is measured by using FLUOstar Optima (BMG LABTECH) according to the protocol of HitHunter™ cAMP XS+Assay (GE Healthcare #90007503) to give the agonist activity of the analyte to the GPR119 receptor.
(1) Construction of the Stable Cell Line Expressing Human G-Protein Coupled Receptor 119 (hGPR119) hGPR119 gene (NM 178471) was purchased from American Type Culture Collection (ATCC No. 10807349). The forward primer that was added a HindIII site ([…] (sequence number 1)), and the reverse primer that was added an ApaI site ([…] (sequence number 2)) were designed, the target gene was amplified by polymerase chain reaction (PCR) using a KOD-Plus-Ver.2 (TOYOBO #KOD-211). PCR was repeated 3 steps (98° C. for 10 sec, 55° C. for 30 sec, 68° C. for 1 min 15 sec) by 35 cycles. Amplified PCR product was inserted in pcDNA5/FRT/TO (Invitrogen #V6520-20), and the stable cell line that expresses target gene when induced with tetracycline was created using the Flp-In T-Rex system (Invitrogen).
(2) Measuring Method of Intracellular Cyclic Adenosine Monophosphate (cAMP) hGPR119 stable cells made by above-mentioned (1) were plated on 96 well plates in Dulbecco's Modified Eagle Medium containing 10% heat-inactivated FBS. After 24 hours, the hGPR119 expression was induced by adding medium containing tetracycline (Invitrogen #Q10019) and incubating for another 24 hours. Following incubation, cells were stimulated by 0.5 mM 3-ISOBUTYL-1-METHYLXANTHINE (Sigma #17018) phosphate buffered saline containing test compound for 30 minutes at 37° C. Agonist activity of test compound to the GPR119 receptor was estimated by measuring the intracellular cAMP concentration using a Fluostar optima plate reader (BMG LABTECH) according to the manufacturer's protocol of the HitHunter™ cAMP XS+Assay (GE Healthcare #90007503).
The examination was performed by the method similar to Example 86 (Pharmacological experiment 1)-(1), -(2).

normal mice = test: Oral glucose tolerance test in normal mice; assay type: in vivo
Procedure: Oral glucose tolerance is tested in normal mice.
In this experiment, the inhibitory effect of an analyte on glycemic excursions is examined after glucose administration in normal mice. The test methods are described below.
Male 9-week-old ICR mice, habituated to the experimental environment for two weeks, are fasted for 18 hours and used to this experiment. Mice are orally administered the analyte or vehicle (polyethylene glycol 400:ethanol:Tween 80=8:1:1). After 30 minutes, they were orally given glucose at the dose of 3 g/kg.
Blood was collected at just before the analyte or vehicle administration (−30 minutes), immediately before glucose challenge (0 minute), 20 minutes, 40 minutes, 60 minutes, and 120 minutes after glucose ingestion to determine blood glucose levels.
Inhibition rate (%) of the analyte versus vehicle in areas under the glycemic excursion curve between 0 and 120 min after glucose challenge is determined.
Oral Glucose Tolerance Test in Normal Mice […]
Blood was collected at just before the test compound or vehicle administration (−30 min), immediately before glucose challenge (0 min), 20 min, 40 min, 60 min and 120 min after glucose ingestion and then blood glucose levels were determined.
Inhibition rate (%) of the test compound versus vehicle in areas under the glycemic excursion curve between 0 and 120 min after glucose challenge was determined.

[1] = Table 17, method similar to Example 86
[2] = Table 16, tetracycline-induced, 30 minutes at 37° C.

SMILES	pEC50 (human GPR119; [1])	melting point [°C]	other results
CC(C)c1nc(N2CCC(c3ccc(COc4ccc(S(C)(=O)=O)cc4)nc3)CC2)no1 [Example 8, 5-[1-(5-Isopropyl-1,2,4-oxadiazol-3-yl)piperidin-4-yl]-2-(4-methanesulfonylphenoxymethyl)pyridine]	6.86	143 to 145	–
Cc1cc(C2CCN(C(=O)OC(C)(C)C)CC2)cnc1COc1ccc(S(C)(=O)=O)cc1 [Example 63, tert-Butyl 4-[2-(4-methanesulfonylphenoxymethyl)-3-methylpyridin-5-yl]piperidine-1-carboxylate]	7.55	130 to 132	–
CCC(C)(C)OC(=O)N1CCC(c2ccc(COc3ccc(S(C)(=O)=O)cc3)nc2)CC1 [Example 41, 1,1-Dimethylpropyl 4-[2-(4-methanesulfonylphenoxymethyl)pyridin-5-yl]piperidine-1-carboxylate]	6.94	114 to 115	–
CC(C)(C)OC(=O)N1CC=C(c2cnc(COc3ccc(S(C)(=O)=O)cc3)cc2Cl)CC1 [Example 76, tert-Butyl 4-[4-chloro-2-(4-methanesulfonylphenoxymethyl)pyridin-5-yl]-3,6-dihydro-2H-pyridine-1-carboxylate]	–	148 to 150	–
CCCCCc1cnc(N2CCC(c3ccc(COc4ccc(-n5cnnn5)cc4)nc3)CC2)nc1 [Example 56, 5-Pentyl-2-[4-[2-[4-(tetrazol-1-yl)phenoxymethyl]pyridin-5-yl]piperidin-1-yl]pyrimidine]	–	174 to 176	–
Cc1cc(C2CCN(C(=O)OC(C)(C)C)CC2)cnc1COc1ccc(S(C)(=O)=O)cc1Cl [Example 80, tert-Butyl 4-[2-(2-chloro-4-methanesulfonylphenoxymethyl)-3-methylpyridin-5-yl]piperidine-1-carboxylate]	7.18	143 to 145	–
CC(C)(C)OC(=O)N1CCC(c2ccc(COc3ccc(-n4cncn4)cc3)nc2)CC1 [Example 16, tert-Butyl 4-[2-[4-(1,2,4-triazol-1-yl)phenoxymethyl]pyridin-5-yl]piperidine-1-carboxylate]	6.89	147 to 150	–
CC(C)(C)OC(=O)N1CCC(c2ccc(COc3ccc(S(C)(=O)=O)cc3)cn2)CC1 [Example 2, tert-Butyl 4-[5-(4-methanesulfonylphenoxymethyl)pyridin-2-yl]piperidine-1-carboxylate]	–	140 to 142	pEC50 (human GPR119; [2]): 6.22; GPR119 agonist effect (in words) (human GPR119): excellent GPR119 agonist effect
CC(C)(C)OC(=O)N1CCC(c2ccc(COc3cccc([N+](=O)[O-])c3)nc2)CC1 [Example 30, tert-Butyl 4-[2-(3-nitrophenoxymethyl)pyridin-5-yl]piperidine-1-carboxylate]	–	94 to 96	–
CCOC(=O)c1ccc(OCc2ccc(C3CCN(C(=O)OC(C)(C)C)CC3)cn2)cc1F [Example 9, tert-Butyl 4-[2-(4-ethoxycarbonyl-3-fluorophenoxymethyl)pyridin-5-yl]piperidine-1-carboxylate]	–	92 to 95	–
CC(C)(C)OC(=O)N1CCC(c2ccc(COc3ccc(S(C)(=O)=O)cc3)nc2)CC1 [Example 1, tert-Butyl 4-[2-(4-methanesulfonylphenoxymethyl)pyridin-5-yl]piperidine-1-carboxylate]	–	–	pEC50 (human GPR119; [2]): 7.57; GPR119 agonist effect (in words) (human GPR119): excellent GPR119 agonist effect; Inhibition rate (%) (normal mice; 10 mg/kg oral, male ICR mice, glucose 3 g/kg 30 min later, area under glycemic excursion curve 0-120 min versus vehicle): 41.8%; inhibitory effect on glycemic excursions (in words) (normal mice; oral glucose tolerance test of normal mice): strong inhibitory effect
CC(C)(C)CC(=O)N1CCC(c2ccc(COc3ccc(S(C)(=O)=O)cc3)nc2)CC1 [Example 46, 1-[4-[2-(4-Methanesulfonylphenoxymethyl)pyridin-5-yl]piperidin-1-yl]-3,3-dimethylbutan-1-one]	–	140 to 142	–
COc1cc(C2CCN(C(=O)OC(C)(C)C)CC2)cnc1COc1ccc(S(C)(=O)=O)cc1 [Example 67, tert-Butyl 4-[2-(4-methanesulfonylphenoxymethyl)-3-methoxypyridin-5-yl]piperidine-1-carboxylate]	–	153 to 154	–
CCc1cnc(N2CCC(c3ccc(COc4ccc(S(C)(=O)=O)cc4)nc3)CC2)nc1 [Example 48, 5-Ethyl-2-[4-[2-(4-methanesulfonylphenoxymethyl)pyridin-5-yl]piperidin-1-yl]pyrimidine]	6.86	185 to 187	–
